From patent publication US20160228403A1, “AGENT FOR PREVENTING OR AMELIORATING RENAL DYSFUNCTION” (TOHOKU UNIVERSITY, priority 2013, published 2016)

Assays:
[1] = system: Tnfa, Il6, Pai-1, and Ccl2; test: Quantitative PCR of nephritis-related marker mRNA in whole kidney; type: in vivo, mice
Experimental: [3] […]
(§1) In addition, 8 renal failure markers other than F4/80 and αSMA (4 nephritis-related markers [Tnfa, Il6, Pai-1, and Ccl2] and 4 fibrosis-related markers [Col1a1, Col3a1, Tgfb1, and Acta2]) were also analyzed. […] The expression level of mRNA of genes of the 8 renal failure markers (the 4 nephritis-related markers and the 4 fibrosis-related markers) was detected by performing quantitative PCR using Fast start universal probe master (from Roche Co., Ltd.) under the conditions described in the following 1) to 2). […]
(§2) The number of PCR cycles at which each PCR product reaches a certain amount (threshold cycle: Ct value) was measured using Baseline software (from Applied Biosystems Co., Ltd.); the relative Ct value of the cDNA amplification product of the gene of each of the 8 renal failure markers (the 4 nephritis-related markers and the 4 fibrosis-related markers) based on the Ct value of the cDNA amplification product of the GAPDH gene was determined by a comparative Ct method (delta-delta Ct method); and the relative amount of cDNA of the gene of each of the 8 renal failure markers (the 4 nephritis-related markers and the 4 fibrosis-related markers), i.e., the relative amount of mRNA of the gene of each of the 8 renal failure markers (the 4 nephritis-related markers and the 4 fibrosis-related markers), was calculated from the relative Ct value (see the ordinate of FIG. 5).

[2] = Body weight of chronic renal failure model mice given lubiprostone; type: in vivo; settings: adenine-diet mice; lubiprostone 50 or 500 μg/kg orally once daily for 12 days; FIG. 1
Experimental: (§3) Chronic renal failure model mice to which lubiprostone was administered were prepared according to a method consisting of the following processes to [4]. The body weight of mice was measured on a weekly basis, and blood pressure was measured by a tailcuff method.
(§4) [1] Male C57BL/6 mice (purchased from Clea Japan, Inc.) were fed on an ordinary feed (CE-2 from Clea Japan, Inc.) until 6 weeks of age.
(§5) [2] At 7 weeks of age, the mice were divided into an ordinary fed group fed on the ordinary feed (control) and an adenine-diet fed group fed on an ordinary feed containing 0.2% adenine (from Wako) (adenine-diet).
[3] […]
In the 4 groups (the ordinary fed group, the corn-oil administration group, the lubiprostone 50 administration group, and the lubiprostone 500 administration group), the body weight of mice at 7 weeks of age (immediately after adenine-diet feeding), at 9 weeks of age (at 2 weeks of age after adenine-diet feeding), at 11 weeks of age (at 4 weeks of age after adenine-diet feeding), at 13 weeks of age (immediately after lubiprostone administration), and at cervical dislocation (at 13/7 [≈1.86] weeks after lubiprostone administration) was measured; the results are shown in FIG. 1.

[3] = system: chronic renal failure model mice; test: Histological analysis of renal tissue (PAS, MTS, picrosirius red) of chronic renal failure model mice; type: in vivo
Experimental: as §3, §4, §5
(§6) [3] The adenine-diet fed group was fed by returning the feed to the ordinary feed after 6 weeks of adenine-diet feeding (at 13 weeks of age) and divided into 3 administration groups (“corn-oil administration group” [vehicle], “lubiprostone 50 administration group” [Lubi50], and “lubiprostone 500 administration group” [Lubi500]; corn oil, 50 μg/kg (mouse body weight) of lubiprostone dissolved in corn oil [Amitiza capsule] [from Abbot Japan Co., Ltd.], and 500 μg/kg (mouse body weight) of lubiprostone dissolved in corn oil [from Abbot Japan Co., Ltd.] were forcibly orally administered using a sound to the “corn-oil administration group”, “lubiprostone 50 administration group”, and “lubiprostone 500 administration group”, respectively once daily for 12 days.
[4] After 24 hours, the mice were subjected to cervical dislocation.
(§7) Renal tissue sections were prepared to perform detailed renal tissue analysis. The renal tissue of the chronic renal failure model mice to which lubiprostone was administered prepared by the method described in Example 1 was fixed in 10% neutral-buffer formalin and embedded in paraffin. The paraffin-embedded renal tissue was sliced and analyzed using 3 histological staining methods (periodic acid-Schiff stain [PAS], Masson's trichrome stain [MTS], and picrosirius red stain) (FIG. 3).

[4] = system: chronic renal failure model mice; test: BUN and hemoglobin level in blood of chronic renal failure model mice (i-STAT); type: in vivo
Experimental: The present invention will be more specifically described below with reference to Examples. However, these Examples are not intended to limit the technical scope of the present invention. In Examples, to confirm that the administration of lubiprostone (trade name: Amitiza) could ameliorate renal function, chronic renal failure model mice were prepared by causing mice to eat adenine and analysis was performed using the chronic renal failure model mice. The chronic renal failure model mice are mice in which nephropathy occurs by the crystallization of the eaten adenine in the uriniferous tubule in the form of insoluble 2,8-dihydroxyadenine (Cozzolino, M. et al. Kidney Int. 64, 441-450 (2003) and Tamagaki, K. et al. Nephrol. Dial. Transplant 21, 651-659 (2006)). All experimental animals were operated after approval by the Ethics Committee of Tohoku University School of Medicine.
as §3, §4, §5
[3] […]
Blood was collected according to an established method from the chronic renal failure model mice to which lubiprostone was administered prepared by the method described in Example 1, and the level of BUN in the blood of the mice was measured using i-STAT (from Fuso) (FIG. 2).

F4/80 = test: DAB staining of renal failure marker protein F4/80 in renal tissue sections; type: in vivo, mice; settings: lubiprostone 50 or 500 μg/kg vs corn oil administration group; FIG. 4 upper
Experimental: as §6, §7
(§8) F4/80 and αSMA are known as renal failure markers. […]

αSMA = test: DAB staining of renal failure marker protein αSMA in renal tissue sections; type: in vivo, mice; settings: lubiprostone 50 or 500 μg/kg vs corn oil administration group; FIG. 4 lower
Experimental: as §6, §7, §8

[5] = system: Col1a1, Col3a1, Tgfb1, and Acta2; test: Quantitative PCR of fibrosis-related marker mRNA in whole kidney; type: in vivo, mice
Experimental: [3] […]
as §1, §2

[6] = lubiprostone 500 administration group (500 μg/kg), Dunnett test, FIG. 5

Structure (SMILES): CCCCC(F)(F)C(=O)CC[C@H]1[C@H](O)CC(=O)[C@@H]1CCCCCCC(=O)O [lubiprostone, (−)-7-[(2R,4aR,5R,7aR)-2-(1,1-difluoropentyl)-2-hydroxy-6-oxooctahydrocyclopenta[b]pyran-5-yl]heptanoic acid]
- mRNA of 3 nephritis-related markers (excluding Il6), statistical difference to the corn oil administration group [1, 6]: a significant difference was noted
- expression level of mRNA of the 4 nephritis-related markers (Tnfa, Il6, Pai-1, Ccl2) ([1]; relative to GAPDH, lubiprostone 50 or 500 μg/kg vs corn oil administration group, FIG. 5 panel A): decreased the expression level of mRNA
- recovery of body weight after return to ordinary feed [2]: did not affect the recovery of body weight
- fibrosis of the kidney, collagen fiber staining by picrosirius red stain, renal tissue sections ([3]; lubiprostone 50 or 500 μg/kg vs corn oil administration group, FIG. 3 panel A bottom): the fibrosis of the kidney was suppressed
- fibrosis of the kidney, collagen fiber staining by MTS method, renal tissue sections ([3]; lubiprostone 50 or 500 μg/kg vs corn oil administration group, FIG. 3 panel A middle): the fibrosis of the kidney was suppressed
- uriniferous tubule, PAS stain of renal tissue sections ([3]; lubiprostone 50 or 500 μg/kg vs corn oil administration group, FIG. 3 panel A top): recovery of the uriniferous tubule was noted
- fibrosis of the kidney, collagen fiber staining by MTS method, whole kidney ([3]; lubiprostone 50 or 500 μg/kg vs corn oil administration group, FIG. 3 panel B top): the fibrosis of the kidney was suppressed
- decrease of the renal uriniferous tubule (tubules area, MTS method, whole kidney) ([3]; lubiprostone 50 or 500 μg/kg vs corn oil administration group, FIG. 3 panels B bottom and C): suppressed in a manner dependent on the dose of lubiprostone
- proportion of the renal uriniferous tubule in the whole kidney, statistical difference to the corn oil administration group ([3]; lubiprostone 500 administration group (500 μg/kg), Dunnett test p<0.01, FIG. 3 panel C): a significant difference was noted
- level of hemoglobin (Hb) in the blood ([4]; chronic renal failure model mice given lubiprostone): did not change
- increase in the blood BUN level ([4]; lubiprostone 50 or 500 μg/kg orally once daily for 12 days vs corn oil administration group, FIG. 2): suppressed in a manner dependent on the dose of lubiprostone
- blood BUN level, statistical difference to the corn oil administration group ([4]; lubiprostone 500 administration group (500 μg/kg), Dunnett test p<0.05, FIG. 2): a significant difference was noted
- increase in the expression of renal failure marker F4/80 protein (F4/80): suppressed
- increase in the expression of renal failure marker αSMA protein (αSMA): suppressed
- mRNA of the 4 fibrosis-related markers, statistical difference to the corn oil administration group [5, 6]: a significant difference was noted
- expression level of mRNA of the 4 fibrosis-related markers (Col1a1, Col3a1, Tgfb1, Acta2) ([5]; relative to GAPDH, lubiprostone 50 or 500 μg/kg vs corn oil administration group, FIG. 5 panel B): decreased the expression level of mRNA
